Data taken from PMC6336804, “Identification of selective inhibitors of Helicobacter pylori IMPDH as a targeted therapy for the infection” (Scientific Reports, 2019).
Like-named read-outs stand apart in the source and are kept apart here.

Assays:
[1] = test system: TfIMPDH; details: TfIMPDH ref 6; cited from earlier work
[2] = test system: CpIMPDH; parameters: method as in ref 8 (a number printed in a supplementary file, which may have a reference list of its own: not looked up in the article's list); details: CpIMPDH ref 8; cited from earlier work
[3] = test system: SpIMPDH; parameters: method as in ref 9 (a number printed in a supplementary file, which may have a reference list of its own: not looked up in the article's list); details: SpIMPDH ref 9; cited from earlier work
[4] = target: T1, HpIMPDH (Helicobacter pylori, UniProt P56088); format: biochemical; details: 100 nM enzyme
T1 construct: His tag; made in house; host or cells: E. coli Rosetta(DE3) pLysS, pET-28a(+)
T1 sequence (P56088 whole entry): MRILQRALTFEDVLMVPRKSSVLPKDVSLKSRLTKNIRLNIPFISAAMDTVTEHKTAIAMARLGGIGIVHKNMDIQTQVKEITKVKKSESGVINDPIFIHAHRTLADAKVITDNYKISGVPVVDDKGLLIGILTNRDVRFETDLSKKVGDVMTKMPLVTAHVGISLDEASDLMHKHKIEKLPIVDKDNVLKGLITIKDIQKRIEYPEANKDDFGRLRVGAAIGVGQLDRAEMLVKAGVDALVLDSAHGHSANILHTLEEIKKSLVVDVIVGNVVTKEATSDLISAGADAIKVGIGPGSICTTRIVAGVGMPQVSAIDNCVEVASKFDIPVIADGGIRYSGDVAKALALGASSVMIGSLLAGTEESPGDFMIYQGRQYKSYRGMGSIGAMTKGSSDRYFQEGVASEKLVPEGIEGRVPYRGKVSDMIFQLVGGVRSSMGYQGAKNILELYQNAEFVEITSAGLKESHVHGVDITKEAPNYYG
Excerpt: Before carrying out enzymatic assays, it is important to determine the enzyme activity.
The initial velocity data was fitted using Michaelis–Menten equation (1) with the help of GraphPad Prism to calculate enzyme kinetic parameters.1 V=Vmax[S]/KM+[S] where, V is velocity, Vmax is maximum velocity, [S] is substrate concentration, KM is Michaelis–Menten constant.

[5] = test system: PaIMPDH; details: PaIMPDH ref 7; cited from earlier work
[6] = test system: HsIMPDH-I; parameters: method as in ref 4 (a number printed in a supplementary file, which may have a reference list of its own: not looked up in the article's list); details: HsIMPDH-I ref 4; cited from earlier work
[7] = test system: HsIMPDH-II; parameters: method as in ref 4 (a number printed in a supplementary file, which may have a reference list of its own: not looked up in the article's list); details: HsIMPDH-II ref 4; cited from earlier work
[8] = test system: BbIMPDH; parameters: method as in ref 10 (a number printed in a supplementary file, which may have a reference list of its own: not looked up in the article's list); details: BbIMPDH ref 10; cited from earlier work
[9] = test system: AgIMPDH; parameters: method as in ref 5 (a number printed in a supplementary file, which may have a reference list of its own: not looked up in the article's list); details: AgIMPDH ref 5; cited from earlier work
[10] = target: T1, HpIMPDH; parameters: method as in ref 3 (a number printed in a supplementary file, which may have a reference list of its own: not looked up in the article's list); details: previously reported HpIMPDH data ref 3; cited from earlier work
[11] = target: T1, HpIMPDH; assay: Mechanism of HpIMPDH inhibition, kinetic studies with varying IMP or NAD+ (Lineweaver-Burk); format: biochemical; details: for Conclusion: type of inhibition versus IMP / Conclusion: type of inhibition versus NAD+: Table S4
Excerpt: There are three important mechanisms of enzyme inhibition, viz. competitive, non-competitive and uncompetitive inhibition. […] The initial velocity data were plotted using Lineweaver-Burk equation using GraphPad Prism.
The data is plotted using the Lineweaver-Burk equation.

[12] = target: T1, HpIMPDH; assay: HpIMPDH enzyme inhibition assay (NADH fluorescence); format: biochemical
Description: To calculate the IC50 values, the initial velocity of the reaction is plotted against concentrations of the small molecule inhibitor, and the data is fitted with the Hill equation.
Similar to enzyme kinetic studies, these were also determined by monitoring NADH concentration through the fluorescence measurement. In the presence of IMPDH inhibitor, decreased catalytic activity of the enzyme reduces the formation of NADH. […] The production of NADH was monitored by measuring fluorescence at 440 nm when excited at 340 nm using PerkinElmer EnVision Multilabel Reader (Perkin Elmer, Inc., MA, USA) at 37 °C. In these assays C91 was used as a positive control.
IC50 values for all compounds were calculated with the help of software GraphPad Prism. The equation applied was:2 Y=Bottom+(Top−Bottom)/1+10^((LogIC50−X)∗HillSlope)

[13] = IC50, HpIMPDH inhibition, 100 nM HpIMPDH, NAD+ 300 µM, IMP 250 µM

Compound	Km [1] [µM]	Km [2] [µM]	Km [3] [µM]	kcat of HpIMPDH for the substrate [4] [S^−1]	Km ([4]; varying NAD+, IMP 500 µM constant) [µM]	Km [5] [µM]	Km [6] [µM]	Km [7] [µM]	Km [8] [µM]	Km [9] [µM]	Km [10] [µM]	Mechanism of HpIMPDH inhibition against both IMP and NAD+ [11]	Conclusion: type of inhibition versus IMP [11]	Conclusion: type of inhibition versus NAD+ [11]	IC50 [12, 13] [µM]	IC50 value (in words) ([12]; HpIMPDH)	IC50 ([12]; IC50, inhibition profile of indole based compounds, Table S3) [µM]
NC(=O)c1ccc[n+]([C@@H]2O[C@H](COP(=O)([O-])OP(=O)(O)OC[C@H]3O[C@@H](n4cnc5c(N)ncnc54)[C@H](O)[C@@H]3O)[C@@H](O)[C@H]2O)c1 [NAD^+]	150 ± 30	150 ± 20	1180 ± 400	5.96 ± 0.53	76.4 ± 1.09	1760 ± 109	32 ± 3.4	46 ± 2.8	1100 ± 160	280 ± 24.7	73 ± 6	–	–	–	–	–	–
O=C(Cn1c(-c2ccccn2)nc2ccccc21)Nc1ccc2ccccc2c1 [Compound 1, reference compound]	–	–	–	–	–	–	–	–	–	–	–	uncompetitive	Un-competitive inhibition	Un-competitive inhibition	0.155 ± 0.082	–	–
O=C(Cn1cc(C(=O)Nc2cccnc2)c2ccccc21)Nc1ccc(Br)cc1 [Compound 2]	–	–	–	–	–	–	–	–	–	–	–	noncompetitive inhibition	Non-competitive inhibition	Non-competitive inhibition	1.89 ± 0.42	micromolar range	1.88
